Assays:
Meligethes aeneus = assay: Oilseed rape inflorescence dip (foliar application), pollen beetle control; assay type: in vivo
Description: 2. Oilseed Rape—Pollen Beetle, Meligethes aeneus:
Foliar application: Test units consisted of a plastic cup with a hole in the bottom and a glass vial below that hole, containing irrigation water. Oil seed rape inflorescences were dipped into the treatment solutions and after drying placed inside the plastic cups. Each cup was sealed with a perforated, transparent lid. Ten adult pollen beetles, field collected, were added to each cup. Each treatment was replicated three times. Pollen beetle survival was assessed 3 days after application.

Phyllotreta striolata = assay: Canola foliar treatment, striped flea beetle mortality; assay type: in vivo
Description: 1. Canola-Striped Flea Beetle, Phyllotreta striolata:
Canola foliar treatment: Before application, construction paper was placed at the base of each plant to catch spray solution and therefore preventing beetle contact with contaminated soil and pots (allowing only the plants to be treated). Canola seedlings were treated at the first true leaf stage in a spray chamber at 300 L/ha with a three nozzle (TX-6) flat boom. Plants were allowed to dry, paper was removed, and plants were transferred to a greenhouse to hold over night. At infest, three plants (replicates) per treatment were placed into a bucket. Twenty adult flea beetles (mix sex) were aspirated into a vial and placed in the center of the bucket. The container was closed and placed into a Percival at 25 C 50% RH. Mortality evaluation was made on 6 DAI.

## C[n+]1c([O-])c(-c2ccccc2)c(=O)n2c1SC[C@@H]2c1cnc(Cl)s1 [Compound I-R-1]
Meligethes aeneus; 72 g ai/ha, oil seed rape inflorescences dipped, field collected adult pollen beetles, assessed 3 days after application
  Percent control (%) A03: 47.8 a %
Meligethes aeneus; foliar application
  efficacy against the adults of pollen beetle (summary in words): good efficacy
Phyllotreta striolata; Phyllotreta striolata, in Brassica napus, 600 ppm, foliar spray 300 L/ha on canola seedlings at first true leaf, adult flea beetles, evaluation 6 DAI
  mortality at 600 ppm: ≥ 65%
Phyllotreta striolata; canola foliar treatment, Table 1
  flea beetle control (summary in words): good flea beetle control

From US20220039386A1, “METHOD FOR CONTROLLING PESTS OF RAPESEED PLANTS” (BASF SE, priority 2018, published 2022)
